{
  "source": "patent US10300065B2",
  "about": "“Method of treating or prevention of atherothrombotic events in patients with history of myocardial infarction” (ASTRAZENECA AB, priority 2015, dated 2019)",
  "key": {"platelets": {"system": "platelets", "assay": "Light transmittance aggregometry (LTA; ADP 20 uM), platelet function substudy", "format": "cell-based, human", "conditions": "for Emax: Homo sapiens, Platelet, mean (SD)", "description": "The pharmacokinetics (PK) and pharmacodynamics of the 60 mg bid dose had not previously been studied. […] 180 patients who had received >4 weeks of study medication had blood sampling in the morning pre-maintenance dose and again 2 h post-dose. All patients were receiving aspirin. […] Well-known VerifyNow® P2Y12 assay and light transmittance aggregometry (LTA; ADP 20 uM) were performed. Groups were compared using Kruskal-Wallis test with significance attached to P<0.01 to allow for multiple group comparisons."}, "[1]": {"system": "patients with a history of myocardial infarction"}, "[2]": {"conditions": "60 mg bid (N = 6958), % of patients"}, "[3]": {"conditions": "60 mg bid (N = 6958), listed as ticagrelor"}},
  "note": "Like-named read-outs stand apart in the source and are kept apart here.",
  "data": [
    {"compound": "CCCSc1nc(N[C@@H]2C[C@H]2c2ccc(F)c(F)c2)c2nnn([C@@H]3C[C@H](OCCO)[C@@H](O)[C@H]3O)c2n1", "note": "[Ticagrelor, (1S,2S,3R,5S)-3-[7-{[(1R,2S)-2-(3,4-difluorophenyl)cyclopropyl]amino}-5-(propylthio)-3H-[1,2,3]-triazolo[4,5-d]pyrimidin-3-yl]-5-(2-hydroxyethoxy)cyclopentane-1,2-diol]", "values": [
      {"measurement": "Platelet reactivity pre- and post-dose as measured by LTA", "setting": "platelets; 90 mg vs 60 mg", "result": "numerically but not significantly lower with 90 mg than 60 mg"},
      {"measurement": "Emax", "setting": "platelets; 2 h, ticagrelor 60 mg bid, 2 h post dose, read-out: LTA Max response (maximum % aggregation response) Post dose", "result": 33, "unit": "%"},
      {"measurement": "Emax", "setting": "platelets; 2 h, ticagrelor 90 mg bid, 2 h post dose, read-out: LTA Max response (maximum % aggregation response) Post dose", "result": 29, "unit": "%"},
      {"measurement": "Emax", "setting": "platelets; ticagrelor 60 mg bid, pre dose, read-out: LTA Max response (maximum % aggregation response) Pre dose", "result": 39, "unit": "%"},
      {"measurement": "Emax", "setting": "platelets; ticagrelor 90 mg bid, pre dose, read-out: LTA Max response (maximum % aggregation response) Pre dose", "result": 36, "unit": "%"},
      {"measurement": "Dyspnea, 3-year event rate", "setting": "[1]; 60 mg bid", "result": 15.8, "unit": "%"},
      {"measurement": "Fatal bleeding: ARI (%)", "setting": "[1]; 60 mg bid", "result": "−0.01", "unit": "%"},
      {"measurement": "Hypotension", "setting": "[1]; 60 mg bid", "result": 0.66, "unit": "events/100 pt years"},
      {"measurement": "ICH: ARI (%)", "setting": "[1]; 60 mg bid", "result": 0.14, "unit": "%"},
      {"measurement": "ICH: NNH", "setting": "[1]; 60 mg bid", "result": 714},
      {"measurement": "TIMI major bleeding: ARI (%)", "setting": "[1]; 60 mg bid", "result": 1.24, "unit": "%"},
      {"measurement": "TIMI major bleeding: NNH", "setting": "[1]; 60 mg bid", "result": 81},
      {"measurement": "frequency of death (including bleeding)", "setting": "[1]; 60 mg bid", "result": 4.2, "unit": "%"},
      {"measurement": "frequency of death, bleeding events excluded", "setting": "[1]; 60 mg bid", "result": 3.9, "unit": "%"},
      {"measurement": "median duration of resolved dyspnea adverse events", "setting": "[1]; 60 mg bid", "result": 31, "unit": "days"},
      {"measurement": "patients with serum creatinine concentration increased by >50%", "setting": "[1]; 60 mg bid", "result": "approximately 4%"},
      {"measurement": "syncope, patients reporting", "setting": "[1]; 60 mg bid", "result": 1.2, "unit": "%"},
      {"measurement": "Adverse event leading to death: (%)", "setting": "[1]; 60 mg bid (N = 6958)", "result": "(2.1) %"},
      {"measurement": "Adverse event leading to death: n", "setting": "[1]; 60 mg bid (N = 6958)", "result": 149},
      {"measurement": "Adverse event leading to discontinuation of study drug: (%)", "setting": "[1]; 60 mg bid (N = 6958)", "result": "(16.1) %"},
      {"measurement": "Adverse event leading to discontinuation of study drug: n", "setting": "[1]; 60 mg bid (N = 6958)", "result": 1117},
      {"measurement": "Any adverse event: (%)", "setting": "[1]; 60 mg bid (N = 6958)", "result": "(75.7) %"},
      {"measurement": "Any adverse event: n", "setting": "[1]; 60 mg bid (N = 6958)", "result": 5268},
      {"measurement": "Any serious adverse event: (%)", "setting": "[1]; 60 mg bid (N = 6958)", "result": "(21.5) %"},
      {"measurement": "Any serious adverse event: n", "setting": "[1]; 60 mg bid (N = 6958)", "result": 1499},
      {"measurement": "Bleeding leading to study drug discontinuation: 3-year Kaplan-Meier estimate", "setting": "[1]; 60 mg bid (N = 6958)", "result": "(6.2) %"},
      {"measurement": "Bleeding leading to study drug discontinuation: n", "setting": "[1]; 60 mg bid (N = 6958)", "result": 355},
      {"measurement": "Bleeding requiring transfusion: 3-year Kaplan-Meier estimate", "setting": "[1]; 60 mg bid (N = 6958)", "result": "(2.10) %"},
      {"measurement": "Bleeding requiring transfusion: n", "setting": "[1]; 60 mg bid (N = 6958)", "result": 105},
      {"measurement": "Bradyarrhythmia adverse event: (%)", "setting": "[1]; 60 mg bid (N = 6958)", "result": "(1.7) %"},
      {"measurement": "Bradyarrhythmia adverse event: n", "setting": "[1]; 60 mg bid (N = 6958)", "result": 121},
      {"measurement": "Dyspnea AE: (%)", "setting": "[1]; 60 mg bid (N = 6958)", "result": "(14.17) %"},
      {"measurement": "Dyspnea AE: n", "setting": "[1]; 60 mg bid (N = 6958)", "result": 986},
      {"measurement": "Dyspnea SAE: (%)", "setting": "[1]; 60 mg bid (N = 6958)", "result": "(0.3) %"},
      {"measurement": "Dyspnea SAE: n", "setting": "[1]; 60 mg bid (N = 6958)", "result": 22},
      {"measurement": "Dyspnea leading to study drug discontinuation: (%)", "setting": "[1]; 60 mg bid (N = 6958)", "result": "(4.3) %"},
      {"measurement": "Dyspnea leading to study drug discontinuation: n", "setting": "[1]; 60 mg bid (N = 6958)", "result": 296},
      {"measurement": "Fatal Bleeding: 3-year Kaplan-Meier estimate", "setting": "[1]; 60 mg bid (N = 6958)", "result": "(0.25) %"},
      {"measurement": "Fatal Bleeding: n", "setting": "[1]; 60 mg bid (N = 6958)", "result": 11},
      {"measurement": "Fatal bleeding or non-fatal intracranial hemorrhage: 3-year Kaplan-Meier estimate", "setting": "[1]; 60 mg bid (N = 6958)", "result": "(0.63) %"},
      {"measurement": "Fatal bleeding or non-fatal intracranial hemorrhage: n", "setting": "[1]; 60 mg bid (N = 6958)", "result": 32},
      {"measurement": "Fatal bleeding: (%) patients with event", "setting": "[1]; 60 mg bid (N = 6958)", "result": "(0.2) %"},
      {"measurement": "Fatal bleeding: Events/100 pt yrs", "setting": "[1]; 60 mg bid (N = 6958)", "result": 0.08, "unit": "Events/100 pt yrs"},
      {"measurement": "Gout adverse event: (%)", "setting": "[1]; 60 mg bid (N = 6958)", "result": "(1.4) %"},
      {"measurement": "Gout adverse event: n", "setting": "[1]; 60 mg bid (N = 6958)", "result": 97},
      {"measurement": "Intracranial Hemorrhage: 3-year Kaplan-Meier estimate", "setting": "[1]; 60 mg bid (N = 6958)", "result": "(0.61) %"},
      {"measurement": "Intracranial Hemorrhage: n", "setting": "[1]; 60 mg bid (N = 6958)", "result": 28},
      {"measurement": "Intracranial hemorrhage: (%) patients with event", "setting": "[1]; 60 mg bid (N = 6958)", "result": "(0.4) %"},
      {"measurement": "Intracranial hemorrhage: Events/100 pt yrs", "setting": "[1]; 60 mg bid (N = 6958)", "result": 0.19, "unit": "Events/100 pt yrs"},
      {"measurement": "Renal adverse event: (%)", "setting": "[1]; 60 mg bid (N = 6958)", "result": "(2.5) %"},
      {"measurement": "Renal adverse event: n", "setting": "[1]; 60 mg bid (N = 6958)", "result": 173},
      {"measurement": "Serious adverse event leading to discontinuation of study drug: (%)", "setting": "[1]; 60 mg bid (N = 6958)", "result": "(3.7) %"},
      {"measurement": "Serious adverse event leading to discontinuation of study drug: n", "setting": "[1]; 60 mg bid (N = 6958)", "result": 255},
      {"measurement": "TIMI Major bleeding: 3-year Kaplan-Meier estimate", "setting": "[1]; 60 mg bid (N = 6958)", "result": "(2.30) %"},
      {"measurement": "TIMI Major bleeding: n", "setting": "[1]; 60 mg bid (N = 6958)", "result": 115},
      {"measurement": "TIMI Major or Minor: (%) patients with event", "setting": "[1]; 60 mg bid (N = 6958)", "result": "(2.4) %"},
      {"measurement": "TIMI Major or Minor: Events/100 pt yrs", "setting": "[1]; 60 mg bid (N = 6958)", "result": 1.15, "unit": "Events/100 pt yrs"},
      {"measurement": "TIMI Major or Minor: n patients with event", "setting": "[1]; 60 mg bid (N = 6958)", "result": 168},
      {"measurement": "TIMI Major: (%) patients with event", "setting": "[1]; 60 mg bid (N = 6958)", "result": "(1.7) %"},
      {"measurement": "TIMI Major: Events/100 pt yrs", "setting": "[1]; 60 mg bid (N = 6958)", "result": 0.78, "unit": "Events/100 pt yrs"},
      {"measurement": "TIMI Minor bleeding: 3-year Kaplan-Meier estimate", "setting": "[1]; 60 mg bid (N = 6958)", "result": "(1.18) %"},
      {"measurement": "TIMI Minor bleeding: n", "setting": "[1]; 60 mg bid (N = 6958)", "result": 55},
      {"measurement": "Non-hemorrhagic adverse reaction: Diarrhea", "setting": "[1]; [2]", "result": 3.3, "unit": "%"},
      {"measurement": "Non-hemorrhagic adverse reaction: Dizziness", "setting": "[1]; [2]", "result": 4.5, "unit": "%"},
      {"measurement": "Non-hemorrhagic adverse reaction: Dyspnea", "setting": "[1]; [2]", "result": 14.2, "unit": "%"},
      {"measurement": "Bleeding leading to study drug discontinuation: 3-year Kaplan-Meier estimate", "setting": "[1]; [3]", "result": 6.2, "unit": "%"},
      {"measurement": "Bleeding requiring transfusion: 3-year Kaplan-Meier estimate", "setting": "[1]; [3]", "result": 2.1, "unit": "%"},
      {"measurement": "Dyspnea leading to study drug discontinuation: (%)", "setting": "[1]; [3]", "result": 4.3, "unit": "%"},
      {"measurement": "Fatal Bleeding: 3-year Kaplan-Meier estimate", "setting": "[1]; [3]", "result": 0.3, "unit": "%"},
      {"measurement": "Intracranial Hemorrhage: 3-year Kaplan-Meier estimate", "setting": "[1]; [3]", "result": 0.6, "unit": "%"},
      {"measurement": "TIMI Major bleeding: 3-year Kaplan-Meier estimate", "setting": "[1]; [3]", "result": 2.30, "unit": "%"},
      {"measurement": "Bleeding leading to study drug discontinuation: HR", "setting": "[1]; 60 mg bid vs Placebo", "result": 4.31},
      {"measurement": "Bleeding requiring transfusion: HR", "setting": "[1]; 60 mg bid vs Placebo", "result": 3.08},
      {"measurement": "Dyspnea AE: HR", "setting": "[1]; 60 mg bid vs Placebo", "result": 2.82},
      {"measurement": "Dyspnea SAE: HR", "setting": "[1]; 60 mg bid vs Placebo", "result": 2.91},
      {"measurement": "Dyspnea leading to study drug discontinuation: HR", "setting": "[1]; 60 mg bid vs Placebo", "result": 6.35},
      {"measurement": "Fatal Bleeding: HR", "setting": "[1]; 60 mg bid vs Placebo", "result": 1.00},
      {"measurement": "Fatal bleeding or non-fatal intracranial hemorrhage: HR", "setting": "[1]; 60 mg bid vs Placebo", "result": 1.22},
      {"measurement": "Intracranial Hemorrhage: HR", "setting": "[1]; 60 mg bid vs Placebo", "result": 1.33},
      {"measurement": "TIMI Major bleeding: HR", "setting": "[1]; 60 mg bid vs Placebo", "result": 2.32},
      {"measurement": "TIMI Minor bleeding: HR", "setting": "[1]; 60 mg bid vs Placebo", "result": 3.31},
      {"measurement": "TIMI major bleeding events per year if 10,000 patients were started on treatment versus placebo", "setting": "[1]; 60 mg bid, intention-to-treat data", "result": 31},
      {"measurement": "Death: (%)", "setting": "[1]; 60 mg bid, intention-to-treat population", "result": "(4.1) %"}
    ]}
  ]
}
